Measurements as given in patent publication EP1972333A1, “Stabilised aqueous solutions of ergolin compounds” (Axxonis Pharma AG, priority 2007, dated 2008).
Converted amounts (≈) assume the structure as drawn. Read-outs that look alike come from different tables or passages of the source.

What was measured:
[1] = Solubility of free ergoline compounds in water / phosphate-buffered solution; type: physicochemical; conditions: for Löslichkeit in Wasser: compared with Lisurid; for solubility: free compound, read-out: Löslichkeit
Protocol: Für strukturverwandte Wirkstoffe, welche auf derselben Grundstruktur basieren, können ähnliche physikalischchemische Aktivitäten in vitro, in vivo sowie in klinischen Studien erwartet werden. Die Lisuridderivate Tergurid und Protergurid weisen Alkylsubstituenten am Stickstoff (N6) der Grundstruktur sowie eine Einfachbindung zwischen den Positionen 9 und 10 auf. […] Die Löslichkeit des freien Protergurid beträgt beispielsweise 2.6 mg/100 mL in einer phosphatgepufferten Lösung (pH 7.4). Die Löslichkeit des freien Lisurids kann entsprechend auf 2.2 mg/100 mL abgeschätzt werden, wobei dieser Wert aus den Löslichkeitsdaten der jeweiligen Wirkstoffe/Wirkstoffsalze kalkuliert wurde (Zimmermann I (1983) International Journal of Pharmaceutics 13: 57-65).

[2] = Solubility improvement by cosolvent; type: physicochemical; conditions: Propylenglykol as low-dosed additive (weniger als 10%)
[3] = Stability of Lisuridhydrogenmaleat in citrate-buffered aqueous solutions (RP-HPLC, UV detection); conditions: citrate buffer; for Färbung / degraded at 4320 h: no cosolvent; for Mittlere Fläche (Lisuridpeakfläche zur totalen Peakfläche des Chromatogramms): t 0 d; for degraded at 4320 h: 180 Tage, protected from light
[4] = 60°C, one week, in the dark, 10080 min
Protocol: Als Additive wurden Propylenglykol und Cremophor ELP in Konzentrationen zwischen 1.00 und 10.00% eingesetzt. […] Die Lösungen wurden im Dunkeln in Glasbehältern bei 60°C für eine Woche aufbewahrt.

[5] = for Mittlere Fläche (Lisuridpeakfläche zur totalen Peakfläche des Chromatogramms): 9% Propylenglykol, no buffer, 2 mg/3 mL
Protocol: Die Wirkstoffkonzentration wurde auf 2 mg pro 3 mL eingestellt. Es wurde kein Puffersystem hinzugegeben. Das weitere Vorgehen umfasste das Einwiegen von 33.3 mg des Wirkstoffs in einen skalierten 50 mL Kolben, anschließende Zugabe des Propylenglykols (4.5g) sowie die Beigabe von 40 mL Wasser. Der Kolben wurde für mehrere Minuten geschüttelt und anschließend Ultraschall ausgesetzt, bis der Wirkstoff vollständig gelöst war. Der Kolben wurde auf Raumtemperatur abgekühlt und bis zur Markierung mit bidestilliertem Wasser aufgefüllt. Abschließend wurde zur Gewährleistung der Homogenität für eine weitere Minute geschüttelt. Die Lösung wurde in durchsichtige Glasampullen von 1 ml Volumen abgefüllt. Diese wurden luftdicht verschlossen und zum Lichtschutz mit Aluminiumfolie umwickelt. Die Ampullen wurden jeweils bei 6 bis 8°C, 25°C und 40°C aufbewahrt.

[6] = oral, daily; 17th Report of the Joint FAO/WHO Expert Committee on Food Additives, 1974; cited from earlier work

CCN(CC)C(=O)N[C@H]1C[C@@H]2c3cccc4[nH]cc(c34)C[C@H]2N(C)C1 [Tergurid]
Löslichkeit in Wasser [1]: vergleichbare Löslichkeit in Wasser wie Lisurid

CCN(CC)C(=O)N[C@H]1C=C2c3cccc4[nH]cc(c34)C[C@H]2N(C)C1 [Lisuridhydrogenmaleat]
Löslichkeit des Wirkstoffs [2]: verbesserten Löslichkeit | Färbung ([3]; 40°C, after 30 Tagen): signifikante gelbe Färbung | Färbung ([3]; 40°C, after weiteren 60 Tagen (following the first 30)): Braun | Mittlere Fläche (Lisuridpeakfläche zur totalen Peakfläche des Chromatogramms) ([3]; Erhöhte Temperatur (40°C), pH 3.5, 2 mg/3 mL): 99,87 Prozent | Mittlere Fläche (Lisuridpeakfläche zur totalen Peakfläche des Chromatogramms) ([3]; Erhöhte Temperatur (40°C), pH 4.5, 2 mg/3 mL): 99,79 Prozent | Mittlere Fläche (Lisuridpeakfläche zur totalen Peakfläche des Chromatogramms) ([3]; Erhöhte Temperatur (40°C), pH 5.1, 2 mg/3 mL): 100,00 Prozent | Mittlere Fläche (Lisuridpeakfläche zur totalen Peakfläche des Chromatogramms) ([3]; Kühlschrank (6-8°C), pH 3.5, 2 mg/3 mL): 99,87 Prozent | Mittlere Fläche (Lisuridpeakfläche zur totalen Peakfläche des Chromatogramms) ([3]; Kühlschrank (6-8°C), pH 4.5, 2 mg/3 mL): 99,79 Prozent | Mittlere Fläche (Lisuridpeakfläche zur totalen Peakfläche des Chromatogramms) ([3]; Kühlschrank (6-8°C), pH 5.1, 2 mg/3 mL): 100,00 Prozent | Mittlere Fläche (Lisuridpeakfläche zur totalen Peakfläche des Chromatogramms) ([3]; Raumtemperatur (25°C), pH 3.5, 2 mg/3 mL): 99,87 Prozent | Mittlere Fläche (Lisuridpeakfläche zur totalen Peakfläche des Chromatogramms) ([3]; Raumtemperatur (25°C), pH 4.5, 2 mg/3 mL): 99,79 Prozent | Mittlere Fläche (Lisuridpeakfläche zur totalen Peakfläche des Chromatogramms) ([3]; Raumtemperatur (25°C), pH 5.1, 2 mg/3 mL): 100,00 Prozent | degraded at 4320 h ([3]; Wirkstoff zersetzt, 40°C): ≤ 30% | degraded at 4320 h ([3]; Zersetzung, Kühlschrank (6-8°C)): ~0.7% | remaining at 720 h ([3]; pH 3.5, Mittlere Fläche (Lisuridpeakfläche zur totalen Peakfläche des Chromatogramms), Erhöhte Temperatur (40°C), pH 3.5, t 30 d, 2 mg/3 mL): 90.4% | remaining at 2160 h ([3]; pH 3.5, Mittlere Fläche (Lisuridpeakfläche zur totalen Peakfläche des Chromatogramms), Erhöhte Temperatur (40°C), pH 3.5, t 90 d, 2 mg/3 mL): 73.4% | remaining at 4320 h ([3]; pH 3.5, Mittlere Fläche (Lisuridpeakfläche zur totalen Peakfläche des Chromatogramms), Erhöhte Temperatur (40°C), pH 3.5, t 180 d, 2 mg/3 mL): 69.9% | remaining at 2160 h ([3]; pH 4.5, Mittlere Fläche (Lisuridpeakfläche zur totalen Peakfläche des Chromatogramms), Erhöhte Temperatur (40°C), pH 4.5, t 90 d, 2 mg/3 mL): 90.4% | remaining at 4320 h ([3]; pH 4.5, Mittlere Fläche (Lisuridpeakfläche zur totalen Peakfläche des Chromatogramms), Erhöhte Temperatur (40°C), pH 4.5, t 180 d, 2 mg/3 mL): 87.7% | remaining at 4320 h ([3]; pH 5.1, Mittlere Fläche (Lisuridpeakfläche zur totalen Peakfläche des Chromatogramms), Erhöhte Temperatur (40°C), pH 5.1, t 180 d, 2 mg/3 mL): 88% | degraded at 4320 h ([3]; pH 5.1, Zersetzung, Raumtemperatur (25°C), citrate buffer pH 5.1, 4.5, 3.5): 5% | Wirkstoff zerfallen ([4]; 1% Cremophor ELP): 14,3% | Wirkstoff zerfallen ([4]; 10% Cremophor ELP): 21.3% | Wirkstoff zersetzt ([5]; 40°C, 180 Tage, 9% Propylenglykol (cosolvent)): ~10% | Mittlere Fläche (Lisuridpeakfläche zur totalen Peakfläche des Chromatogramms) ([5]; Erhöhte Temperatur (40°C), t 0 d): 99.80 Prozent | Mittlere Fläche (Lisuridpeakfläche zur totalen Peakfläche des Chromatogramms) ([5]; Erhöhte Temperatur (40°C), t 7 d): 99.33 Prozent | Mittlere Fläche (Lisuridpeakfläche zur totalen Peakfläche des Chromatogramms) ([5]; Erhöhte Temperatur (40°C), t 30 d): 97.59 Prozent | Mittlere Fläche (Lisuridpeakfläche zur totalen Peakfläche des Chromatogramms) ([5]; Erhöhte Temperatur (40°C), t 90 d): 94.06 Prozent | Mittlere Fläche (Lisuridpeakfläche zur totalen Peakfläche des Chromatogramms) ([5]; Erhöhte Temperatur (40°C), t 180 d): 89.76 Prozent | Wirkstoff zerfallen ([5]; Kühlschrank (6-8°C), 180 Tage, protected from light, 9% Propylenglykol (cosolvent)): ~0.4% | Mittlere Fläche (Lisuridpeakfläche zur totalen Peakfläche des Chromatogramms) ([5]; Kühlschrank (6-8°C), t 0 d): 99.80 Prozent | Mittlere Fläche (Lisuridpeakfläche zur totalen Peakfläche des Chromatogramms) ([5]; Kühlschrank (6-8°C), t 30 d): 99.67 Prozent | Mittlere Fläche (Lisuridpeakfläche zur totalen Peakfläche des Chromatogramms) ([5]; Kühlschrank (6-8°C), t 90 d): 99.52 Prozent | Mittlere Fläche (Lisuridpeakfläche zur totalen Peakfläche des Chromatogramms) ([5]; Raumtemperatur (25°C), t 0 d): 99.80 Prozent | Mittlere Fläche (Lisuridpeakfläche zur totalen Peakfläche des Chromatogramms) ([5]; Raumtemperatur (25°C), t 30 d): 99.46 Prozent | Mittlere Fläche (Lisuridpeakfläche zur totalen Peakfläche des Chromatogramms) ([5]; Raumtemperatur (25°C), t 90 d): 99.15 Prozent | Mittlere Fläche (Lisuridpeakfläche zur totalen Peakfläche des Chromatogramms) ([5]; Raumtemperatur (25°C), t 180 d): 98.35 Prozent

CCCN1C[C@@H](NC(=O)N(CC)CC)C[C@@H]2c3cccc4[nH]cc(c34)C[C@H]21 [Protergurid]
Löslichkeit in Wasser [1]: vergleichbare Löslichkeit in Wasser wie Lisurid | solubility ([1]; phosphate-buffered solution, phosphatgepufferte Lösung (pH 7.4)): 26 µg/mL (≈ 70.6 µM)

CC(O)CO (stereo not drawn) [Propylenglykol, 1,2-Propandiol (Propylenglykol)]
geschätzte Menge, welche als tägliche orale Dosis akzeptabel ist [6]: 25 mg/kg kg

CCN(CC)C(=O)N[C@H]1C=C2c3cccc4[nH]cc(c34)C[C@H]2N(C)C1 [Lisurid]
solubility ([1]; estimated, calculated from solubility data of the drugs/drug salts (Zimmermann 1983)): ~22 µg/mL
